These results are taken from ChEMBL document CHEMBL6115002, “Discovery of novel sitolactone derivative leading to PANoptosis and differentiation of acute myeloid leukemia cells” (Eur J Med Chem, 2025).

Activity calls are given as the source filed them. No cut-off for these calls is given here.

Data set [1] deals with Kasumi 1. As to the kind of experiment: Antiproliferative activity against human Kasumi 1 cells assessed as inhibition cell proliferation incubated for 72 hrs by MTT assay. The following applies: Kasumi 1, 72 h. The data set is classed as functional, cell-based.
In the next data set the test system is HCT-116. Put plainly: Inhibition of tumor sphere formation in human HCT-116 cells at 1.25 uM incubated for 24 hrs. The data set is classed as functional, cell-based.
A further data set relates to MV4-11. Put plainly: Antiproliferative activity against human MV4-11 cells assessed as inhibition cell proliferation incubated for 72 hrs by MTT assay. It counts as functional, cell-based. Conditions: MV4-11, 72 h.
A short description of data set [2]: Antiproliferative activity against mouse WEHI-3 cells assessed as inhibition cell proliferation incubated for 72 hrs by MTT assay. The data set is classed as functional, cell-based. The following applies: WEHI-3, 72 h.
Data set [3] is described as follows: Permeability of compound in human Caco-2 cells. The data set is classed as ADME, cell-based.
Data set [4] deals with Kasumi 1. As to the kind of experiment: Induction of […] in human Kasumi 1 cells assessed as activation of p-RIPK3 level at 25 to 50 uM incubated for 24 hrs by Western blotting analysis. It counts as functional, cell-based. The following applies: dose 25-50 µM.
The subject of data set [5] is Mus musculus. Put plainly: Antitumor activity against Balb/c mouse implanted with mouse WEHI-3 cells assessed as reduction in hepatomegaly at 1 mg/kg, po administered once daily for 15 days. It counts as functional, organism-based. The following applies: time 15.0 day.
Data set [6] relates to Kasumi 1. Put plainly: Induction of apoptosis in human Kasumi 1 cells assessed as increase in caspase-3 level incubated for 24 hrs by Western blotting analysis. It counts as functional, cell-based. Conditions: dose 25-50 µM.
Data set [7] deals with WEHI-3. As to the kind of experiment: Induction of […] in mouse WEHI-3 cells assessed as activation of p-RIPK3 level at 25 to 50 uM incubated for 24 hrs by Western blotting analysis. Conditions: dose 25-50 µM. The data set is classed as functional, cell-based.
The test system of data set [8] is WEHI-3. Put plainly: Induction of […] in mouse WEHI-3 cells assessed as activation of p-MLKL level at 25 to 50 uM incubated for 24 hrs by Western blotting analysis. It counts as functional, cell-based. The following applies: dose 25-50 µM.
Data set [9] has as its system WEHI-3. Put plainly: Induction of apoptosis in mouse WEHI-3 cells assessed as increase in cleaved PARP-1 level incubated for 24 hrs by Western blotting analysis. The data set is classed as functional, cell-based. The following applies: dose 25-50 µM.
Data set [10] deals with Kasumi 1. Put plainly: Induction of apoptosis in human Kasumi 1 cells assessed as increase in cleaved PARP-1 level incubated for 24 hrs by Western blotting analysis. It counts as functional, cell-based. The following applies: dose 25-50 µM.
Data set [11] concerns Kasumi 1. Put plainly: Induction of […] in human Kasumi 1 cells assessed as activation of p-MLKL level at 25 to 50 uM incubated for 24 hrs by Western blotting analysis. The data set is classed as functional, cell-based. The following applies: dose 25-50 µM.
The test system of data set [12] is WEHI-3. Put plainly: Induction of apoptosis in mouse WEHI-3 cells assessed as increase in caspase-3 level incubated for 24 hrs by Western blotting analysis. Conditions: dose 25-50 µM. It counts as functional, cell-based.
The test system of data set [13] is Kasumi 1. As to the kind of experiment: Upregulation of SMARCB1 protein level in human Kasumi 1 cells by pull down based Western blotting analysis. It counts as functional, cell-based.
Data set [14] concerns Kasumi 1. Put plainly: Upregulation of SMARCA2 protein level in human Kasumi 1 cells by pull down based Western blotting analysis. It counts as functional, cell-based.
Data set [15] concerns Kasumi 1. Put plainly: Upregulation of SMARCA4 protein level in human Kasumi 1 cells by pull down based Western blotting analysis. It counts as functional, cell-based.
The nature of data set [16]: Oral bioavailability in male Sprague-Dawley rat at 200 mg/kg measured after 18 hrs LC/MS-MS analysis. The data set is classed as ADME, organism-based. Conditions: in vivo.
Data set [17] in a line: Cmax in male Sprague-Dawley rat at 50 mg/kg, iv measured after 18 hrs LC/MS-MS analysis. Conditions: in vivo. The data set is classed as ADME, organism-based.
Data set [18] deals with WEHI-3. As to the kind of experiment: Antitumor activity against mouse WEHI-3 cells implanted in Balb/c mouse assessed as reduction in liver metastasis at 100 to 200 mg/kg, po administered daily for 15 days by H and E staining based analysis. It counts as functional, organism-based. Conditions: dose 100-200 mg/kg, time 15.0 day.
Data set [19] in a line: Cmax in male Sprague-Dawley rat at 200 mg/kg, po measured after 18 hrs LC/MS-MS analysis. It counts as ADME, organism-based. The following applies: in vivo.
The test system of data set [20] is Mus musculus. Put plainly: Antitumor activity against Balb/c mouse implanted with mouse WEHI-3 cells assessed as reduction in splenomegaly at 100 to 200 mg/kg, po administered once daily for 15 days. The data set is classed as functional, organism-based. The following applies: dose 100-200 mg/kg, time 15.0 day.
Data set [21] can be described thus: AUC (0 to t) in male Sprague-Dawley rat at 50 mg/kg, iv measured after 18 hrs LC/MS-MS analysis. The data set is classed as ADME, organism-based. Conditions: in vivo.
For data set [22], the system named is Mus musculus. Put plainly: Antitumor activity against Balb/c mouse implanted with mouse WEHI-3 cells assessed as reduction in hepatomegaly at 100 to 200 mg/kg, po administered once daily for 15 days. The data set is classed as functional, organism-based. Conditions: dose 100-200 mg/kg, time 15.0 day.
The nature of data set [23]: AUC(0 to t) in male Sprague-Dawley rat at 200 mg/kg, po measured after 18 hrs LC/MS-MS analysis. It counts as ADME, organism-based. Conditions: in vivo.
The test system of data set [24] is Mus musculus. Put plainly: Antitumor activity against Balb/c mouse implanted with mouse WEHI-3 cells assessed as reduction in splenomegaly at 1 mg/kg, po administered once daily for 15 days. It counts as functional, organism-based. The following applies: time 15.0 day.
The nature of data set [25]: Half life in male Sprague-Dawley rat at 200 mg/kg, po measured after 18 hrs LC/MS-MS analysis. Conditions: in vivo. It counts as ADME, organism-based.
Data set [26] in a line: Half life in male Sprague-Dawley rat at 50 mg/kg, iv measured after 18 hrs LC/MS-MS analysis. It counts as ADME, organism-based. The following applies: in vivo.

`C=C1C[C@@H]2[C@@H](CC[C@]3(C)[C@@H](OC(c4ccccc4)(c4ccc(OC)cc4)c4ccc(OC)cc4)CC[C@@H]23)OC1=O`: the IC50 in the data set with Kasumi 1 [1] was determined as 1460 nM; with MV4-11, 3040 nM; in data set [2] it was 940 nM. Also, the inhibition entry with HCT-116 is “inactive”. The permeability result in data set [3] was “Permeable”.

Turning to `COC(=O)C[C@](O)(CCCC(C)(C)O)C(=O)O[C@@H]1C(OC)=C[C@]23CCCN2CCc2cc4c(cc2[C@H]13)OCO4`, the outcome in the data set with Kasumi 1 [4], in the data set on WEHI-3 [7], in the data set with WEHI-3 [8] and in the data set on Kasumi 1 [11] was inactive. In addition, the result with Mus musculus [5] was Active. For the same compound, the Activity result in the data set with Kasumi 1 [6], with WEHI-3 [9], in the data set with Kasumi 1 [10] and in the data set with WEHI-3 [12] was “Dose-dependent-effect” in each case.

Turning to `CC(C)[Si](O[C@H]1CC[C@H]2[C@@H]3CC(CCCc4cn(CCOCCOCCOCCNC(=O)CCCC[C@@H]5SC[C@@H]6NC(=O)N[C@@H]65)nn4)C(=O)O[C@@H]3CC[C@]12C)(C(C)C)C(C)C` (stereo partly drawn), the outcome in the data set with Kasumi 1 [13], in the data set on Kasumi 1 [14] and with Kasumi 1 [15] was Active.

As for `C=C1C[C@@H]2[C@@H](CC[C@]3(C)[C@@H](OC(c4ccccc4)(c4ccccc4)c4ccccc4)CC[C@@H]23)OC1=O`, the figures for the IC50 (in the data set on Kasumi 1 [1]; in the data set with MV4-11; in [2]) were 1850 nM, 2680 nM and 1030 nM, respectively. Besides, the inhibition result with HCT-116 is “inactive”. Also, the permeability result in [3] is on record as “Permeable”.

Consider `CC(C)[Si](O[C@H]1CC[C@H]2[C@@H]3CC(CN4CCC[C@H]4CO)C(=O)O[C@@H]3CC[C@]12C)(C(C)C)C(C)C` (stereo partly drawn), for which, in [16], the bioavailability stood at 68.6%. Also, the Cmax in data set [17] is 12100 ng/mL; in [19] it was 17700 ng/mL. In addition, the result with WEHI-3 [18], in the data set on Mus musculus [20], in the data set on Mus musculus [22] and in the data set on Mus musculus [24] was Active. Moreover, the results for the AUC(0-t) at 18 h in data set [21] and in [23] were 7150 ng·h/mL and 19600 ng·h/mL, respectively. For the same compound, the half-life was 59.8 min in data set [25] and 16.3 min in data set [26].
